# Laboratory results published in patent US8822520B2, “Substituted bicyclic HCV inhibitors” (Presidio Pharmaceuticals, Inc., priority 2010, dated 2014).
# Read-outs that look alike come from different tables or passages of the source.
# Tested on: HCV genotype 1b replicon in Huh 7 cells (HCV 1b_Huh-Luc/Neo-ET cell line)
# Experiment: HCV replicon assay (luciferase readout)
# Assay type: cell-based
# Conditions: Hepatitis C virus
# Protocol: Biological activity of the compounds of the invention was determined using an HCV replicon assay. The HCV 1b_Huh-Luc/Neo-ET cell line persistently expressing a bicistronic genotype 1b replicon in Huh 7 cells was obtained from ReBLikon GMBH. This cell line was used to test compound inhibition using luciferase enzyme activity readout as a measurement of compound inhibition of replicon levels.
# On Day 1 (the day after plating cells), each compound is added in triplicate to the cells. Plates are incubated for 72 h prior to determining luciferase levels. Enzyme activity was measured using a Bright-Glo Kit (cat. number E2620) manufactured by Promega Corporation. The following equation was used to generate a percent control value for each compound. % Control=(Compound Luciferase Level/Control Luciferase Level)*100
# The EC50 value was determined using GraphPad Prism and the following equation: Y=Bottom asymptote+(Top asymptote−Bottom asymptote)/(1+10^((Log EC50−X)*HillSlope))
# EC50 values of compounds are determined several times in the replicon assay to generate average EC50 values.
# [1] = Huh-7, Table 1, EC50 range class, replicon luciferase, 72 h incubation, average EC50, read-out: Inhibition of HCV genotype 1b
# [2] = Huh-7, 72 h, read-out: Inhibition of HCV genotype lb
SMILES,EC50 [1] [nM],EC50 [2] [nM]
CC[C@H](C)[C@H](NC(=O)OC)C(=O)N1CCC[C@H]1c1ncc(-c2ccc(-c3ccc(-c4cnc([C@@H]5CCCN5C(=O)[C@@H](NC(=O)OC)C(C)C)[nH]4)cc3)c(OCCOC)c2OCCOC)[nH]1 [Compound 19],< 1,
COCCOc1c(-c2ccc(-c3cnc([C@@H]4CCCN4C(=O)[C@H](NC(=O)OC)c4ccccc4)[nH]3)cc2)ccc(-c2cnc([C@@H]3CCCN3C(=O)[C@H](NC(=O)OC)c3ccccc3)[nH]2)c1OCCOC [Compound 20],< 1,
COCCOc1c(-c2ccc(-c3cnc([C@@H]4CCCN4C(=O)[C@H](NC(=O)OC)c4ccsc4)[nH]3)cc2)ccc(-c2cnc([C@@H]3CCCN3C(=O)[C@H](NC(=O)OC)c3ccsc3)[nH]2)c1OCCOC [Compound 21],< 1,
COCCOc1c(-c2ccc(-c3cnc([C@@H]4CCCN4C(=O)[C@H](NC(=O)OC)c4cccs4)[nH]3)cc2)ccc(-c2cnc([C@@H]3CCCN3C(=O)[C@H](NC(=O)OC)c3cccs3)[nH]2)c1OCCOC [Compound 22],< 1,
COCCOc1c(-c2ccc(-c3cnc([C@@H]4CCCN4C(=O)[C@H](NC(C)=O)c4ccccc4)[nH]3)cc2)ccc(-c2cnc([C@@H]3CCCN3C(=O)[C@H](NC(C)=O)c3ccccc3)[nH]2)c1OCCOC [Compound 23],< 1,
CNC(=O)N[C@@H](C(=O)N1CCC[C@H]1c1ncc(-c2ccc(-c3ccc(-c4cnc([C@@H]5CCCN5C(=O)[C@H](NC(=O)NC)c5ccccc5)[nH]4)c(OCCOC)c3OCCOC)cc2)[nH]1)c1ccccc1 [Compound 24],< 1,
COCCOc1cc(-c2cnc([C@@H]3CCCN3C(=O)C(NC(=O)OC)[C@@H](C)OC)[nH]2)ccc1-c1ccc(-c2cnc([C@@H]3CCCN3C(=O)C(NC(=O)OC)[C@@H](C)OC)[nH]2)cc1OCCOC (stereo partly shown) [Compound 25],1 to 9.9,
COCCOc1cc(-c2cnc([C@@H]3CCCN3C(=O)[C@H](NC(=O)OC)c3ccccc3)[nH]2)ccc1-c1ccc(-c2cnc([C@@H]3CCCN3C(=O)[C@H](NC(=O)OC)c3ccccc3)[nH]2)cc1OCCOC [Compound 26],< 1,
COCCOc1c(-c2ccc(-c3cnc([C@@H]4CCCN4C(=O)[C@@H](NC(=O)OC)C(C)C)[nH]3)cc2)ccc(-c2cnc([C@@H]3CCCN3C(=O)[C@H](COC)NC(=O)OC)[nH]2)c1OCCOC [Compound 27],< 1,
COCCOc1c(-c2ccc(-c3cnc([C@@H]4CCCN4C(=O)[C@@H](NC(=O)OC)C(C)C)[nH]3)cc2)ccc(-c2cnc([C@@H]3CCCN3C(=O)[C@@H](NC(=O)OC)[C@@H](C)OC)[nH]2)c1OCCOC [Compound 28],< 1,
COCCOc1c(-c2ccc(-c3cnc([C@@H]4CCCN4C(=O)[C@@H](NC(=O)OC)C(C)C)[nH]3)cc2)ccc(-c2cnc([C@@H]3CCCN3C(=O)[C@@H](NC(=O)OC)C3CCCC3)[nH]2)c1OCCOC [Compound 29],< 1,
COCCOc1c(-c2ccc(-c3cnc([C@@H]4CCCN4C(=O)[C@@H](NC(=O)OC)C(C)C)[nH]3)cc2)ccc(-c2cnc([C@@H]3CCCN3C(=O)[C@H](NC(=O)OC)c3ccccc3)[nH]2)c1OCCOC [Compound 30],< 1,
COCCOc1c(-c2ccc(-c3cnc([C@@H]4CCCN4C(=O)[C@@H](NC(=O)OC)C(C)C)[nH]3)cc2)ccc(-c2cnc([C@@H]3CCCN3C(=O)[C@H](NC(=O)OC)c3ccsc3)[nH]2)c1OCCOC [Compound 31],< 1,
COCCOc1c(-c2ccc(-c3cnc([C@@H]4CCCN4C(=O)[C@@H](NC(=O)OC)C(C)C)[nH]3)cc2)ccc(-c2cnc([C@@H]3CCCN3C(=O)[C@H](NC(=O)OC)c3cccs3)[nH]2)c1OCCOC [Compound 32],< 1,
COCCOc1c(-c2ccc(-c3cnc([C@@H]4CCCN4C(=O)[C@@H](NC(=O)OC)C(C)C)[nH]3)cc2)ccc(-c2cnc([C@@H]3CCCN3C(=O)[C@@H](c3ccccc3)N(C)C)[nH]2)c1OCCOC [Compound 33],< 1,
COCCOc1cc(-c2cnc([C@@H]3CCCN3C(=O)[C@@H](NC(=O)OC)C(C)C)[nH]2)ccc1-c1ccc(-c2cnc([C@@H]3CCCN3C(=O)[C@@H](NC(=O)OC)[C@@H](C)OC)[nH]2)cc1OCCOC [Compound 34],1 to 9.9,
CC[C@H](C)[C@H](NC(=O)OC)C(=O)N1CCC[C@H]1c1ncc(-c2ccc(-c3ccc(-c4cnc([C@@H]5CCCN5C(=O)[C@@H](NC(=O)OC)C(C)C)[nH]4)cc3OCCOC)c(OCCOC)c2)[nH]1 [Compound 35],< 1,
COCCOc1cc(-c2cnc([C@@H]3CCCN3C(=O)[C@@H](NC(=O)OC)C(C)C)[nH]2)ccc1-c1ccc(-c2cnc([C@@H]3CCCN3C(=O)[C@@H](NC(=O)OC)C3CCCC3)[nH]2)cc1OCCOC [Compound 36],< 1,
COCCOc1cc(-c2cnc([C@@H]3CCCN3C(=O)[C@@H](NC(=O)OC)C(C)C)[nH]2)ccc1-c1ccc(-c2cnc([C@@H]3CCCN3C(=O)[C@H](NC(=O)OC)c3ccccc3)[nH]2)cc1OCCOC [Compound 37],< 1,

SMILES,EC50 [1] [nM],EC50 [2] [nM]
COCCOc1cc(-c2cnc([C@@H]3CCCN3C(=O)[C@@H](NC(=O)OC)C(C)C)[nH]2)ccc1-c1ccc(-c2cnc([C@@H]3CCCN3C(=O)[C@@H](c3ccccc3)N3CCCC3)[nH]2)cc1OCCOC [Compound 38],1 to 9.9,
COCCOc1c(-c2ccc(-c3cnc([C@H](C)NC(=O)[C@@H](NC(=O)OC)C(C)C)[nH]3)cc2)ccc(-c2cnc([C@@H]3CCCN3C(=O)[C@@H](NC(=O)OC)C(C)C)[nH]2)c1OCCOC [Compound 39],1 to 9.9,
COCCOc1c(-c2ccc(-c3cnc([C@@H]4COCCN4C(=O)[C@@H](NC(=O)OC)C(C)C)[nH]3)cc2)ccc(-c2cnc([C@@H]3CCCN3C(=O)[C@@H](NC(=O)OC)C(C)C)[nH]2)c1OCCOC [Compound 40],1 to 9.9,
COCCOc1c(-c2ccc(-c3cnc([C@@H]4CSCN4C(=O)[C@@H](NC(=O)OC)C(C)C)[nH]3)cc2)ccc(-c2cnc([C@@H]3CCCN3C(=O)[C@@H](NC(=O)OC)C(C)C)[nH]2)c1OCCOC [Compound 41],1 to 9.9,
COC(=O)N[C@H](C(=O)N1CCC[C@H]1c1ncc(-c2ccc3cc2OCCOCCOCCOCCOCCOc2cc-3ccc2-c2cnc([C@@H]3CCCN3C(=O)[C@@H](NC(=O)OC)C(C)C)[nH]2)[nH]1)C(C)C [Compound 42],1 to 9.9,
COC(=O)N[C@H](C(=O)N1CCC[C@H]1c1ncc(-c2ccc3c(c2)OCCOCCOCCOCCOCCOc2cc-3ccc2-c2cnc([C@@H]3CCCN3C(=O)[C@@H](NC(=O)OC)C(C)C)[nH]2)[nH]1)C(C)C [Compound 43],1 to 9.9,
COC(=O)N[C@H](C(=O)N1CCC[C@H]1c1ncc(-c2ccc3c(c2)OCCOCCOCCOc2cc(-c4cnc([C@@H]5CCCN5C(=O)[C@@H](NC(=O)OC)C(C)C)[nH]4)ccc2-3)[nH]1)C(C)C [Compound 44],1 to 9.9,
COCCOc1c(-c2ccc(-c3cnc([C@@H]4CCCN4C(=O)[C@@H](NC(=O)OC)C(C)C)[nH]3)cc2)ccc(-c2cnc([C@@H]3CCCN3C(=O)[C@@H](c3ccccc3)N3CCCC3)[nH]2)c1OCCOC [Compound 45],< 1,
COCCOc1cc(-c2cnc([C@@H]3CCCN3C(=O)[C@@H](NC(=O)OC)C(C)C)[nH]2)ccc1-c1ccc(-c2cnc([C@@H]3CCCN3C(=O)[C@@H](NC(=O)OC)C(C)C)[nH]2)c(OCCOC)c1 [Compound 51],,< 1
COCCOc1cc(-c2cnc([C@@H]3CCCN3C(=O)[C@@H](NC(=O)OC)C(C)C)[nH]2)ccc1-c1ccc(-c2cnc([C@@H]3CCCN3C(=O)[C@@H](NC(=O)OC)C(C)C)[nH]2)cc1 [Compound 52],,< 1
COCCOc1cc(-c2ccc(-c3cnc([C@@H]4CCCN4C(=O)[C@@H](NC(=O)OC)C(C)C)[nH]3)cc2)ccc1-c1cnc([C@@H]2CCCN2C(=O)[C@@H](NC(=O)OC)C(C)C)[nH]1 [Compound 53],,< 1
COCCOc1cc(-c2ccc(-c3cnc([C@@H]4CCCN4C(=O)[C@@H](NC(=O)OC)C(C)C)[nH]3)c(OCCOC)c2)ccc1-c1cnc([C@@H]2CCCN2C(=O)[C@@H](NC(=O)OC)C(C)C)[nH]1 [Compound 54],,1 to 9.9
COCCOc1cc(-c2cnc([C@@H]3CCCN3C(=O)[C@@H](NC(=O)OC)C(C)C)[nH]2)c(OCCOC)cc1-c1ccc(-c2cnc([C@@H]3CCCN3C(=O)[C@@H](NC(=O)OC)C(C)C)[nH]2)cc1 [Compound 55],,< 1
COCCOc1c(-c2ccc(-c3cnc([C@@H]4C[C@@H](O)CN4C(=O)[C@@H](NC(=O)OC)C(C)C)[nH]3)cc2)ccc(-c2cnc([C@@H]3CCCN3C(=O)[C@@H](NC(=O)OC)C(C)C)[nH]2)c1OCCOC [Compound 60],,< 1
COCCOc1cc(-c2cnc([C@@H]3CCCN3C(=O)[C@H](COC)NC(=O)OC)[nH]2)ccc1-c1ccc(-c2cnc([C@@H]3CCCN3C(=O)[C@H](COC)NC(=O)OC)[nH]2)cc1OCCOC [Compound 75],,1 to 9.9
COCCOc1cc(-c2cnc([C@@H]3CCCN3C(=O)[C@@H](NC(=O)OC)C(C)(C)C)[nH]2)ccc1-c1ccc(-c2cnc([C@@H]3CCCN3C(=O)[C@@H](NC(=O)OC)C(C)(C)C)[nH]2)cc1OCCOC [Compound 76],,< 1
COCCOc1cc(-c2cnc([C@@H]3CCCN3C(=O)[C@@H](NC(=O)OC)C3CCOCC3)[nH]2)ccc1-c1ccc(-c2cnc([C@@H]3CCCN3C(=O)[C@@H](NC(=O)OC)C3CCOCC3)[nH]2)cc1OCCOC [Compound 77],,1 to 9.9
COCCOc1cc(-c2cnc([C@@H]3CCCN3C(=O)[C@H](NC(=O)OC)c3ccsc3)[nH]2)ccc1-c1ccc(-c2cnc([C@@H]3CCCN3C(=O)[C@H](NC(=O)OC)c3ccsc3)[nH]2)cc1OCCOC [Compound 78],,1 to 9.9
